Test results from patent US4559323A, “A41030 Antibiotics” (Eli Lilly and Company, priority 1984, dated 1985).
Like-named read-outs stand apart in the source and are kept apart here.

Key:
[1] = test system: Hemophilus influenzae; test: Agar-dilution MIC; format: cell-based; details: Table 17, 24 hours
[2] = test system: Clostridium perfringens; format: cell-based; details: Table 14; Clostridium perfringens 81
[3] = test system: Peptococcus prevoti; test: Agar-dilution MIC (anaerobes); format: cell-based
[4] = test system: Fusobacterium necrophorum; test: Agar-dilution MIC (anaerobes); format: cell-based; details: Table 14; Fusobacterium necrophorum 6054A
[5] = test system: Clostridium difficile; format: cell-based; details: Table 14; Clostridium difficile 2994
[6] = test system: Clostridium difficile; format: cell-based; details: Table 16
Text: The A41030 antibiotic factors A, B, C, D, E, F, and G, are also active against a number of strains of Clostridium difficile, as determined by the agar-dilution method.

[7] = test system: B. thetaiotaomicron; format: cell-based
Text: (§1) The agar-dilution procedure described by the International Collaborative study (ICS) group was used to determine the minimum inhibitory concentrations (MIC's).

[8] = Solubility in solvents; format: physicochemical; details: solvents as named
Text: The seven antibiotic factors are recovered from the fermentation and are obtained as a mixture, the A41030 complex. It will be recognized that the ratio of the factors in the A41030 complex will vary, depending upon the fermentation conditions used. The individual factors […], and G are separated and isolated as individual compounds, as hereinafter described.

[9] = test system: Bacteroides vulgatis; test: Agar-dilution MIC (anaerobes); format: cell-based; details: Table 12; 24-hour; B. vulgatis 1563
Text: (§2) The A41030 antibiotics, factors A, B, and C, are active against a genus of anaerobic bacteria identified as Bacteroides sp., the 24-hour MIC values being determined by the agar-dilution method, and are set forth in Table 12, which follows.

[10] = test system: Bacteroides corrodens; test: Agar-dilution MIC (anaerobes); format: cell-based; details: Table 12; 24-hour; B. corrodens 1874
Text: as §2

[11] = test system: Salmonella typhi; test: Agar-dilution MIC; format: cell-based; details: Table 17, 24 hours
[12] = test system: Bacteroides vulgatis; test: Agar-dilution MIC (anaerobes); format: cell-based; details: Table 14; Bacteroides vulgatis 1211
[13] = test system: Clostridium septicum; test: Agar-dilution MIC (anaerobes); format: cell-based; details: Table 14; Clostridium septicum 1128
[14] = test system: Streptococcus pyogenes; test: Agar-dilution MIC; format: cell-based; details: Table 17; 24 hours; Streptococcus pyogenes C203
Text: as §1

[15] = test system: Streptococcus sp. (Group D); test: Agar-dilution MIC; format: cell-based; details: Table 17, 24 hours
Text: as §1

[16] = test system: Peptostreptococcus anaerobius; test: Agar-dilution MIC (anaerobes); format: cell-based
[17] = test system: Bacteroides corrodens; test: Agar-dilution MIC (anaerobes); format: cell-based; details: Table 14; Bacteroides corrodens 1874
[18] = test system: Staph. aureus; test: Experimental bacterial infection in mice, subcutaneous ED50; format: in vivo; details: two doses subcutaneously
Method: (§3) All of the A41030 factors tested have shown in vivo antimicrobial activity against experimental bacterial infections. When two doses of test compound were administered subcutaneously to mice in illustrative infections, the activity observed is measured as an ED50 value [effective dose in mg./kg. to protect fifty percent of the test animals: See Warren Wick, et al., J. Bacteriol. 81, 233-235 (1961)].

[19] = test system: S. pyogenes; test: as above; format: in vivo; details: two doses subcutaneously
Method: as §3

[20] = test system: S. pneumoniae; test: as above; format: in vivo; details: two doses subcutaneously
Method: as §3

[21] = test system: Fusobacterium symbiosum; test: Agar-dilution MIC (anaerobes); format: cell-based; details: Table 14; Fusobacterium symbiosum 1470
[22] = test system: Peptostreptococcus intermedius; test: Agar-dilution MIC (anaerobes); format: cell-based; details: Table 15
[23] = Electrometric titration (pKa); format: physicochemical; details: electrometric titration in 66% dimethylformamide in water
[24] = test system: Bacteroides melaninogenicus; test: Agar-dilution MIC (anaerobes); format: cell-based; details: Table 14; Bacteroides melaninogenicus 2736
[25] = test system: S. pyogenes; test: In vivo oral activity against S. pyogenes in mice

Work on A41030 factor C yielded an MIC ([1]; Haemophilus influenzae 251) of 4 µg/mL, an MIC ([1]; Haemophilus influenzae Brun) of 16 µg/mL and an MIC [2] of 1.0 µg/mL. It also gave an MIC ([3]; Table 14, Peptococcus prevoti 1281) of no more than 0.25 µg/mL, an MIC ([3]; Table 15, Pc. prevoti 1281) of 1.0 µg/mL and an MIC ([3]; Table 15, Pc. prevoti 1293) of 0.5 µg/mL. For the same substance, the MIC ([3]; Table 15, Pc. prevoti 1407) was 1.0 µg/mL, the MIC [4] was 16 µg/mL and the MIC [5] was 16 µg/mL. For the same substance, the MIC ([6]; C. difficile 78) was 1.0 µg/mL, the MIC ([6]; C. difficile 107B) was 1.0 µg/mL and the MIC ([6]; C. difficile 111F) was 2 µg/mL. The MIC ([6]; C. difficile 1153) was 2 µg/mL, the MIC ([6]; C. difficile 2634) was 2 µg/mL and the MIC ([6]; C. difficile 3424-5B) was 1.0 µg/mL. The MIC ([6]; C. difficile 3816) was 2 µg/mL, the MIC ([6]; C. difficile 3950) was 2 µg/mL and the MIC ([6]; C. difficile 6890) was 2 µg/mL. For the same substance, the MIC ([6]; C. difficile 8484) was 1.0 µg/mL, the MIC ([6]; C. difficile A-194) was 2 µg/mL and the MIC ([6]; C. difficile A-195) was 1.0 µg/mL. The MIC ([6]; C. difficile A-196) was 2 µg/mL, the MIC ([6]; C. difficile A-279) was 2 µg/mL and the MIC ([6]; C. difficile A-280) was 1.0 µg/mL. For the same substance, the MIC ([6]; C. difficile A-281) was 2 µg/mL, the MIC ([6]; C. difficile WAL-2112) was 2 µg/mL and the MIC ([6]; C. difficile WAL-3657) was 2 µg/mL. It also gave an MIC ([6]; C. difficile WAL-4268) of 1.0 µg/mL, an MIC ([7]; Table 12, 24-hour, B. thetaiotaomicron 1438) of 32 µg/mL and an MIC ([7]; Table 12, 24-hour, B. thetaiotaomicron 1900A) of 128 µg/mL. For the same substance, the MIC ([7]; Table 14, Bacteroides thetalotaomicron 1438) was 64 µg/mL, the Solubility [8] was “soluble in the same solvents as factor A” and the MIC [9] was 32 µg/mL. For the same substance, the MIC [10] was 32 µg/mL, the MIC ([11]; Salmonella typhi 1335) was greater than 128 µg/mL and the MIC ([11]; Salmonella typhi X514) was greater than 128 µg/mL. It also gave an MIC [12] of 32 µg/mL, an MIC [13] of 8 µg/mL and an MIC [14] of 1 µg/mL. It also gave an MIC ([15]; Streptococcus sp. Group D 9960) of 4 µg/mL, an MIC ([15]; Streptococcus sp. Group D X66) of 2 µg/mL and an MIC ([16]; Table 14, Peptostreptococcus anaerobius 1428) of no more than 0.25 µg/mL. For the same substance, the MIC ([16]; Table 15, Ps. anaerobius 52) was 0.25 µg/mL, the MIC ([16]; Table 15, Ps. anaerobius 59) was 0.25 µg/mL and the MIC ([16]; Table 15, Ps. anaerobius 1418) was no more than 0.03 µg/mL. The MIC ([16]; Table 15, Ps. anaerobius 1428) was 0.25 µg/mL, the MIC ([16]; Table 15, Ps. anaerobius 1451) was 0.25 µg/mL and the MIC ([16]; Table 15, Ps. anaerobius 1477) was 0.25 µg/mL. The MIC [17] was 32 µg/mL, the ED50 [18] was less than 0.43 mg/kg and the ED50 [19] was 10.4 mg/kg. The ED50 [20] was 6.7 mg/kg, the MIC [21] was 1.0 µg/mL and the MIC ([22]; Ps. intermedius 1264) was no more than 0.03 µg/mL. The MIC ([22]; Ps. intermedius 1624) was 1.0 µg/mL, the “pKa, first titratable group” value [23] was “about 5.5” and the MIC [24] was 4 µg/mL. The “in vivo oral activity” value [25] was greater than 300 mg./kg.X2.
